Test results: patent publication US5580552A, “7-glycosyloxybenzopyran derivative and antiallergic agent containing the derivative as active ingredient” (priority 1994, dated 1996)

Experiments:
[1] = system: homologous passive cutaneous anaphylaxis (PCA) reaction; test: Effect on homologous passive cutaneous anaphylaxis (PCA) reaction in rats; assay type: in vivo, rats (male wistar); conditions: 50 mg/kg oral, 1 hour before challenge (TABLE 2)
In short: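 Male Wistar rats sensitized intradermally with anti-DNP-As serum; 48 h later compound given orally at 50 mg/kg in 0.5% CMCNa. Challenge 1 h post-dose with i.v. TNP-As plus Evans Blue; extravasated dye measured at 30 min, inhibition versus vehicle group, n=5.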

[2] = system: contact dermatitis induced by picryl chloride; test: Effect on contact dermatitis induced by picryl chloride in mice; assay type: in vivo; conditions: 50 mg/kg oral, 1 hour before and 16 hours after challenge; 24 hours after challenge
In short: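 Mice sensitized on shaved abdomen with 7 mg picryl chloride in acetone, challenged 7 days later with 1% picryl chloride in olive oil on left ear. Compounds given orally at 50 mg/kg in 0.5% CMCNa 1 h before and 16 h after challenge. Ear thickness increase at 24 h vs pre-challenge; inhibition % relative to vehicle.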

[3] = system: experimental asthma model (airway resistance); test: Effect on experimental asthma model in guinea pigs (airway resistance); assay type: in vivo, guinea pigs (male hartley); conditions: 50 mg/kg oral (TABLE 6)

SMILES	Inhibition (%) of PCA reaction [1] [%]	Inhibition (%) against the increase of ear thickness [2] [%]	Inhibition (%) of the airway resistance [3] [%]
C=COc1c(O)c(=O)oc2cc(O[C@@H]3O[C@H](CO)[C@@H](O)[C@H](O)[C@H]3O)ccc12 [compound 158]	44.3	48.2	42.3
CC(C)=CCC/C(C)=C/COc1c(O)c(=O)oc2cc(O[C@@H]3O[C@H](CO)[C@@H](O)[C@H](O)[C@H]3O)ccc12 [compound 160]	43.9	46.7	58.9
